Reference: US5116858A, “4-imidazoline derivatives” (Mitsubishi Kasei Corporation, priority 1989, dated 1992)

Key:
Acute toxicity, oral = details: rat, in vivo, SD rats, seven-day observation
Description: Compounds of the invention suspended in 1% tragacanth was orally administered to SD rats (both male and female) and mortality (LD50) was determined after seven-day observation.

mice = test: Passive avoidance response test (memory-improving activity, cycloheximide-treated mice); format: in vivo; details: Mus musculus; oral, 15 mice per group, cycloheximide 120 mg/kg s.c., latent time; read-out: Memory-Improving Activity, Minimum Effective Dose
Description: Passive avoidance response test was conducted in mice (15 animals per group) using light-dark differential apparatus of step-down type. The apparatus consisted of a dark room made of black and rigid vinylidene chloride resin [30 cm (depth)×30 cm (width)×31 cm (height)] and a light room, as an adjacent room, made of transparent rigid vinylidene chloride resin. The floor of the light room was set 2 cm higher than the grid surface of the dark room (step down type), and there was a guillotine door between the rooms. The animals were placed in the apparatus and acclimatized before test, and latent time for moving from the light room to the dark room was determined.
The acclimatized animals subcutaneously received 120 mg/kg of cycloheximide (Sigma) dissolved in physiological saline. After 30 minutes of the administration, the animals were placed in the light room. Immediatly after the movement of the animals to the dark room, electric current was applied on the grid (0.5 mA, 3 seconds), which gave the animals "aquired behavior". After 24 hours of the establishment of the aquired behavior, a test compound suspended in 1% tragacanth was administered orally to the animals, which were then returned to the light room. Control animals received only 1% tragacanth. The latent time until an individual animal started to move to the dark room was determined.

[1] = test system: peroxidized lipid in rat brain homogenate; test: Lipoperoxidation inhibitory activity in brain homogenate (TBA method); format: biochemical, Wistar male rats; details: 30 minutes at 37° C., final conc. 0.3-100 μM, read-out: Anti-lipoperoxidation Activity IC50
Description: Brain homogenate was prepared using Wistar male rats in accordance with the following procedure. […] A polyethylene tube was inserted into the aorta through the left ventricle, and fixed. Brain perfusion was conducted using ice-cooled 50 mM phosphate buffered saline (PBS), pH 7.4, through the tube, and whole brain was extracted. After removal of the cerebellum, the cerebrum was weighed while wet and homogenated by a Teflon homogenizer under ice-cooling, after addition of nine-fold by weight of PBS. The resultant homogenate was centrifuged at 4° C. (2200 r.p.m., 10 minutes), and an aliquot of the supernatant (0.3 ml) was placed in a light-resistant test tube with ground stopper and used for the following test.
To the brain homogenate obtained above were added PBS (0.6 ml) and an ethanol solution (10 μl) containing a predetermined amount of a test compound. Thus, each of the ethanol solutions was prepared so that the final concentration of the compound was 0.3-100 μM. The mixture was allowed to warm for 30 minutes at 37° C. (external bath temperature). […] (2600 r.p.m., 10 minutes). The resultant supernatant was used in the following quantitative analysis.
The aqueous mixture was heated in a boiling-water bath for 60 minutes and cooled rapidly. Distilled water (1.0 ml) and a mixture of pyridine and butanol (1:15) (5.0 ml) were added to the cooled mixture, and the latter was shaken for 30 seconds and centrifuged (3000 r.p.m., 10 minutes). The supernatant was used as a test sample for quantitative analysis of peroxidized lipid as mentioned below.

[2] = test system: cytotoxicities caused by active oxygen species; details: background; cited from earlier work
[3] = background, Iyakuhin Kenkyu 16, 1 (1985); cited from earlier work

Molecule: CCCCc1ccc(-c2c(C)[nH]c(=O)n2C)cc1 [Compound No. 2, 5-(4'-n-Butylphenyl)-1,4-dimethyl-4-imidazolin-2-one]
- LD50 at 168 h (Acute toxicity, oral): > 1000 mg/kg
- minimal effective dose (mice): 0.1 mg/kg
- IC50 [1]: 10.7 µM

Molecule: CCCCc1ccc(-c2c(C)[nH]c(=O)n2Cc2ccccc2)cc1 [Compound No. 137, 1-Benzyl-5-(4'-n-butylphenyl)-4-methyl-4-imidazolin-2-one]
- LD50 at 168 h (Acute toxicity, oral): > 1000 mg/kg
- minimal effective dose (mice): 0.1 mg/kg
- IC50 [1]: 12.4 µM

Molecule: O=C1O[C@H]([C@@H](O)CO)C(O)=C1O [Vitamin C]
- activity as inhibitory agent for cytotoxicities (in words) [2]: very limited in their activities

Molecule: Cc1[nH]c(=O)n(C)c1-c1ccc(C2CCCCC2)cc1 [compound 8]
- LD50 at 168 h (Acute toxicity, oral): > 1000 mg/kg
- minimal effective dose (mice): 0.1 mg/kg
- IC50 [1]: 10 µM

Molecule: Cc1[nH]c(=O)n(C)c1-c1ccc(-c2ccccc2)cc1 [compound 16]
- LD50 at 168 h (Acute toxicity, oral): > 1000 mg/kg
- minimal effective dose (mice): 0.3 mg/kg
- IC50 [1]: 6.3 µM

Molecule: Cc1[nH]c(=O)n(Cc2ccccc2)c1-c1ccc(-c2ccccc2)cc1 [compound 141]
- minimal effective dose (mice): 0.1 mg/kg
- IC50 [1]: 7.9 µM

Molecule: CCCCOc1ccc(-c2c(C)[nH]c(=O)n2Cc2ccccc2)cc1 [compound 142]
- minimal effective dose (mice): 0.3 mg/kg
- IC50 [1]: 12.8 µM

Molecule: CCN(CC)Cc1nccn1-c1ccc([N+](=O)[O-])cc1C(=O)c1ccccc1Cl [nizofenone]
- inhibitory action on CNS (in words) [3]: strong inhibitory action on CNS

Molecule: Vitamin E
- activity as inhibitory agent for cytotoxicities (in words) [2]: very limited in their activities
